Results taken from patent US20080026417A1, “ASSAYS FOR TRICHOMONAL AND OTHER HYDROLASES” (priority 2002, published 2008).
Peptide text beside a SMILES is read from it. * marks the point of attachment. NH(4-MeO-2-naphthyl) = COc1cc(N*)cc2ccccc12; βNA = c1ccc2cc(N*)ccc2c1; Cbz = O=C(OCc1ccccc1)*; Bz = O=C(c1ccccc1)*

Tested on: trichomonal hydrolases
Assay: Experiment 13: hydrolysis of peptide substrates by trichomonal hydrolases at low pH, no vaginal fluid
Format: biochemical, Trichomonas vaginalis
Design: key: −: No red color produced; +: Clearly visible red color produced; ++: Moderately intense red color produced; +++: Very intense red color produced
Details: without vaginal fluid; threonine buffer pH 2.4; 2 mM substrate solution; 10 min 25° C.; Fast Garnet
Method: Forty μL of each substrate was pipetted into duplicate wells of a microtiter plate. The plate was covered with tape, placed into a 25° C. incubator, and allowed to warm. A diluted enzyme mixture was prepared by mixing one part (v/v) freshly-thawed trichomonal hydrolase solution to nine parts 2 mM L-cysteine solution. Forty μL of this mixture was added to one well of each pair of duplicate wells. For negative controls, 40 μL of 2 mM L-cysteine was added to the second well in each pair of duplicate wells. The plate was returned to the incubator and incubated for ten minutes. Forty μL of SDS/acetate solution was added to each well, followed by 40 μL of Fast Garnet solution. The intensity of color that developed in each well after five minutes was visually scored using the color scale presented in Table 13.1.

For `NC(N)=NCCCC(NC(=O)c1ccccc1)C(=O)Nc1ccc2ccccc2c1` (racemic) [BZ-DL-Arg-βNA], the “Color Score” value was “−”.

For `C[C@H](N)C(=O)N[C@@H](C)C(=O)Nc1ccc2ccccc2c1` [Ala-Ala-βNA] (H-Ala-Ala-βNA), the “Color Score” value was “−”.

`C[C@H](N)C(=O)Nc1ccc2ccccc2c1` [Ala-βNA] was tested, and the “Color Score” value was “−”.

In the case of `N=C(N)NCCC[C@H](NC(=O)[C@@H](N)CCCNC(=N)N)C(=O)Nc1ccc2ccccc2c1` [Arg-Arg-βNA] (H-Arg-Arg-βNA), the “Color Score” value is reported as “−”.

In the case of `COc1cc(NC(=O)[C@@H](N)CCCN=C(N)N)cc2ccccc12` [Arg-MNA], the “Color Score” value is reported as “−”.

For `NC(N)=NCCC[C@H](N)C(=O)Nc1ccc2ccccc2c1` [Arg-βNA], the “Color Score” value was “−”.

For `COc1cc(NC(=O)[C@H](C)NC(=O)[C@H](C)NC(=O)[C@H](CCC(N)=O)NC(=O)OC(C)(C)C)cc2ccccc12` [BOC-Gln-Ala-Ala-MNA], the “Color Score” value was “−”.

`COc1cc(NC(=O)C(CCCNC(=N)N)NC(=O)C(C)NC(=O)C(CCC(N)=O)NC(=O)OC(C)(C)C)cc2ccccc12` (stereo not drawn) [BOC-Gln-Ala-Arg-MNA] was tested, and the “Color Score” value was “−”.

`COc1cc(NC(=O)[C@H](CCCNC(=N)N)NC(=O)c2ccccc2)cc2ccccc12` [BZ-Arg-MNA] was tested, and the “Color Score” value was “−”.

`N=C(N)NCCC[C@H](NC(=O)[C@H](Cc1ccccc1)NC(=O)[C@@H]1CCCN1C(=O)c1ccccc1)C(=O)Nc1ccc2ccccc2c1` [BZ-Pro-Phe-Arg-βNA] (Bz-Pro-Phe-Arg-βNA) was tested, and the “Color Score” value was “−”.

`COc1cc(NC(=O)C(CC(C)C)NC(=O)C(Cc2ccccc2)NC(=O)CNC(=O)C(CCCNC(=N)N)NC(=O)OCc2ccccc2)cc2ccccc12` (stereo not drawn) [CBZ-Arg-Gly-Phe-Leu-MNA] (Cbz-RGFL-{NH(4-MeO-2-naphthyl)}; configuration not given here) was tested, and the “Color Score” value was “−”.

With `COc1cc(NC(=O)C(CCCNC(=N)N)NC(=O)OCc2ccccc2)cc2ccccc12` (stereo not drawn) [CBZ-Arg-MNA] the “Color Score” value was “−”.

`COc1cc(NC(=O)[C@H](CCCNC(=N)N)NC(=O)CNC(=O)CNC(=O)OCc2ccccc2)cc2ccccc12` [CBZ-Gly-Gly-Arg-MNA] was tested, and the “Color Score” value was “−”.

In the case of `CC(C)C[C@H](NC(=O)CNC(=O)CNC(=O)OCc1ccccc1)C(=O)Nc1ccc2ccccc2c1` [CBZ-Gly-Gly-Leu-βNA] (Cbz-Gly-Gly-Leu-βNA), the “Color Score” value is reported as “−”.

`O=C(CNC(=O)OCc1ccccc1)NCC(=O)N[C@@H](Cc1ccccc1)C(=O)Nc1ccc2ccccc2c1` [CBZ-Gly-Gly-Phe-βNA] (Cbz-Gly-Gly-Phe-βNA) was tested, and the “Color Score” value was “−”.

`COc1cc(NC(=O)C(CCCNC(=N)N)NC(=O)C2CCCN2C(=O)CNC(=O)OCc2ccccc2)cc2ccccc12` (stereo not drawn) [CBZ-Gly-Pro-Arg-MNA] was tested, and the “Color Score” value was “−”.

For `COc1cc(NC(=O)[C@H](CCCNC(=N)N)NC(=O)[C@H](CCCNC(=N)N)NC(=O)[C@H](CC(C)C)NC(=O)OCc2ccccc2)cc2ccccc12` [CBZ-Leu-Arg-Arg-MNA], the “Color Score” value was “+”.

For `COc1cc(NC(=O)[C@H](CCCNC(=N)N)NC(=O)[C@H](CCCCN)NC(=O)[C@H](CCCCN)NC(=O)OCc2ccccc2)cc2ccccc12` [CBZ-Lys-Lys-Arg-MNA], the “Color Score” value was “+”.

With `NCCCC[C@H](NC(=O)OCc1ccccc1)C(=O)Nc1ccc2ccccc2c1` [CBZ-Lys-βNA] the “Color Score” value was “−”.

For `COc1cc(NC(=O)[C@H](CCCN=C(N)N)NC(=O)[C@H](CCCCN)NC(=O)[C@H](CCCCN)NC(=O)[C@@H](NC(=O)OCc2ccccc2)C(C)C)cc2ccccc12` [CBZ-Val-Lys-Lys-Arg-MNA] (Cbz-VKKR-{NH(4-MeO-2-naphthyl)}), the “Color Score” value was “+”.

For `COc1cc(NC(=O)C(Cc2ccccc2)NC(=O)CNC(=O)C(N)CCC(N)=O)cc2ccccc12` (stereo not drawn) [Gln-Gly-Phe-MNA], the “Color Score” value was “−”.

With `COc1cc(NC(=O)C(CCCN=C(N)N)NC(=O)CN)cc2ccccc12` (stereo not drawn) [Gly-Arg-MNA] the “Color Score” value was “−”.

For `NCC(=O)N[C@@H](CCCN=C(N)N)C(=O)Nc1ccc2ccccc2c1` [Gly-Arg-βNA] (H-Gly-Arg-βNA), the “Color Score” value was “−”.

For `NCC(=O)NCC(=O)Nc1ccc2ccccc2c1` [Gly-Gly-βNA] (H-Gly-Gly-βNA), the “Color Score” value was “−”.

`COc1cc(NC(=O)C(Cc2ccccc2)NC(=O)CN)cc2ccccc12` (stereo not drawn) [Gly-Phe-MNA] was tested, and the “Color Score” value was “−”.

For `NCC(=O)N[C@@H](Cc1ccccc1)C(=O)Nc1ccc2ccccc2c1` [Gly-Phe-βNA] (H-Gly-Phe-βNA), the “Color Score” value was “−”.

In the case of `COc1cc(NC(=O)[C@@H]2CCCN2C(=O)CN)cc2ccccc12` [Gly-Pro-MNA], the “Color Score” value is reported as “−”.

In the case of `NCC(=O)N[C@@H](Cc1c[nH]c2ccccc12)C(=O)Nc1ccc2ccccc2c1` [Gly-Trp-βNA] (H-Gly-Trp-βNA), the “Color Score” value is reported as “−”.

For `NCC(=O)Nc1ccc2ccccc2c1` [Gly-βNA], the “Color Score” value was “−”.

With `COc1cc(NC(=O)C(CO)NC(=O)C(N)Cc2cnc[nH]2)cc2ccccc12` (stereo not drawn) [His-Ser-MNA] the “Color Score” value was “−”.

For `N[C@@H](Cc1cnc[nH]1)C(=O)Nc1ccc2ccccc2c1` [His-βNA], the “Color Score” value was “−”.

With `O=C(Nc1ccc2ccccc2c1)[C@@H]1C[C@@H](O)CN1` [Hyp-βNA] the “Color Score” value was “−”.

With `CC[C@H](C)[C@H](N)C(=O)Nc1ccc2ccccc2c1` [Ile-βNA] the “Color Score” value was “−”.

For `CC(C)C[C@H](N)C(=O)N[C@@H](C)C(=O)Nc1ccc2ccccc2c1` [Leu-Ala-βNA] (H-Leu-Ala-βNA), the “Color Score” value was “−”.

With `COc1cc(NC(=O)C(N)CC(C)C)cc2ccccc12.Cl` (stereo not drawn) [Leu-MNA] the “Color Score” value was “−”.

For `CC(C)C[C@H](N)C(=O)Nc1ccc2ccccc2c1` [Leu-βNA], the “Color Score” value was “−”.

For `C[C@H](NC(=O)[C@@H](N)CCCCN)C(=O)Nc1ccc2ccccc2c1` [Lys-Ala-βNA] (H-Lys-Ala-βNA), the “Color Score” value was “−”.

`NCCCC[C@H](N)C(=O)Nc1ccc2ccccc2c1` [Lys-βNA] was tested, and the “Color Score” value was “−”.

With `N=C(N)NCCC[C@H](NC(=O)[C@@H](N)Cc1ccccc1)C(=O)Nc1ccc2ccccc2c1` [Phe-Arg-βNA] (H-Phe-Arg-βNA) the “Color Score” value was “−”.

For `COc1cc(NC(=O)[C@@H](N)Cc2ccccc2)cc2ccccc12` [Phe-MNA], the “Color Score” value was “−”.

`N[C@@H](Cc1ccccc1)C(=O)Nc1ccc2ccccc2c1` [Phe-βNA] was tested, and the “Color Score” value was “−”.

With `COc1cc(NC(=O)C(CCCN=C(N)N)NC(=O)C2CCCN2)cc2ccccc12` (stereo not drawn) [Pro-Arg-MNA] the “Color Score” value was “−”.

For `O=C(Nc1ccc2ccccc2c1)[C@@H]1CCCN1` [Pro-βNA], the “Color Score” value was “−”.

With `CSCC[C@H](NC(=O)[C@@H](N)CO)C(=O)Nc1ccc2ccccc2c1` [Ser-Met-βNA] (H-Ser-Met-βNA) the “Color Score” value was “−”.

With `N[C@@H](CO)C(=O)N[C@@H](Cc1ccc(O)cc1)C(=O)Nc1ccc2ccccc2c1` [Ser-Tyr-βNA] (H-Ser-Tyr-βNA) the “Color Score” value was “−”.

For `N[C@@H](CO)C(=O)Nc1ccc2ccccc2c1` [Ser-βNA], the “Color Score” value was “−”.

In the case of `N[C@@H](Cc1c[nH]c2ccccc12)C(=O)Nc1ccc2ccccc2c1` [Trp-βNA], the “Color Score” value is reported as “−”.

With `CC(C)[C@H](N)C(=O)Nc1ccc2ccccc2c1` [Val-βNA] the “Color Score” value was “−”.

CBZ-Val-Leu-Arg-MNA was tested, and the “Color Score” value was “+”.

Cbz-Arg-Arg-βNA was tested, and the “Color Score” value was “−”.

Pro-MNA was tested, and the “Color Score” value was “−”.
